Results on two compounds are retold here after publication PMC7353089, “The Hepatotoxicity of Alantolactone and Germacrone: Their Influence on Cholesterol and Lipid Metabolism in Differentiated HepaRG Cells” (Nutrients, 2020).

Read-outs that look alike come from different tables or passages of the source.

Common to all, as to format: cell-based, human
The subject of one data set is dHepaRG cells. The data set is described as follows: MTT cell viability assay. The note with it: for toxicity toward dHepaRG cells compared with cancer cells: comparison of own IC50 with previously reported IC50 values; for cell viability: 24 and 72 h, MTT method and LDH leakage. On the procedure:
Cryopreserved HepaRG cells were obtained from Biopredic International (Rennes, France). Undifferentiated cells were seeded according to the supplier protocols in 96-well plates for the viability assays, and in 6-well plates for the mRNA and western blot measurements. The cells were cultured for two weeks in Williams E Medium with GlutaMAX™ (Invitrogen, Paisley, UK) supplemented with 10% fetal bovine serum, 2 mM glutamine, 100 IU/mL penicillin, 100 μg/mL streptomycin, 5 μg/mL insulin, and 50 μM hydrocortisone hemisuccinate. The cells were afterwards cultured for another 2-week period in the same medium supplemented with 1.7% DMSO. The medium was replaced every 2–3 days.
In the 96-well plates, viability was evaluated using the methylthiazole-tetrazolium (MTT) colorimetric assay. After 24 and 72-h exposure, 25 μL of MTT solution (3 mg of MTT in 1 mL of phosphate buffered saline, PBS) were added to each well. The plates were incubated at 37 °C for an additional 2 h, after which the medium was removed and the formed formazan was dissolved in 50 μL of 0.08 M HCl in isopropanol during 30 min shaking. The absorbance in each well was read at 570 and 690 nm using a spectrophotometer (Tecan Infinite M200, Tecan, Männedorf, Switzerland).

For the next data set, the system named is HMGCR mRNA. Briefly: RT-qPCR mRNA expression in dHepaRG cells. The note with it: single exposure, the highest concentration. On the procedure:
The mRNA and protein expression changes were measured after a single administration of ALA and GER. Three concentrations were selected for each compound (non-toxic, non-toxic/slightly toxic and toxic). The cholesterol level of the dHepaRG cells was measured after a multiple exposure of the highest non-toxic concentrations of tested compounds. ATL (30 µM) and GER (100 µM) were administered four times every 24 h. The expression changes of genes and proteins related to cholesterol metabolism were measured in both single and multiple exposure experiments.
All treatments were performed in triplicates and every experiment was performed three times. The cells were washed twice with ice cold phosphate-buffered saline (PBS), scrapped and stored at −80 °C until use. Total RNA from cells was isolated using TriReagent according to the manufacturer’s instructions (Biotech, Prague, Czech Republic). The purified RNA was dissolved in 40 µL of diethyl pyrocarbonate (DEPC)-treated water (0.01% DEPC in HPLC water, autoclaved) and stored at −80 °C. The measurement of absorbance at 260 and 280 nm using the NanoDrop ND-1000 UV–VIS Spectrophotometer (Thermo Fisher Scientific, Pardubice, Czech Republic) was used to determine RNA yields and purity. Subsequently, the RNA (4 µg) was treated with 2 U of DNase I (New England Biolabs, Ipswich, MA, USA) in a final volume of 30 µL for 25 min at 37 °C, 1.5 µL of 0.1 M ethylenediaminetetraacetic acid was added and the DNAse was inactivated by heat (5 min at 75 °C). The solution was diluted to a concentration of 0.1 µg/µL. The DNAse treated RNA was stored at −80 °C until further analyses. […] Fluorescence data were recorded at the end of each amplification step. Relative expression levels of the target genes were calculated as fold changes in triplicates for each group using the 2^−ΔΔCt method by normalization to the geometric mean of the Ct values of Sdha and Ywhaz, which were used as reference genes.
In general terms: In qPCR the cycle at which signal appears reflects the starting amount.

For the next data set, the system named is HMGCS mRNA. The data set is described as follows: RT-qPCR mRNA expression in dHepaRG cells.
In the next data set the test system is A1AT mRNA. Briefly: RT-qPCR mRNA expression in dHepaRG cells. The note with it: after 24 h.
The next data set deals with ALB mRNA. The data set is described as follows: RT-qPCR mRNA expression in dHepaRG cells. The note with it: after 6 h of exposure.
The mark [1] stands for this setting: dHepaRG cell viability, 24 h single exposure, read-out: IC50 ± SD, MTT.
[2] abbreviates: dHepaRG cell viability, 72 h single exposure, read-out: IC50 ± SD, MTT.
Setting [3] is: dHepaRG cells, 24-h treatment, read-out: half-maximal inhibitory concentration of cell viability (approximate).

Description for A1AT mRNA: (§1) Three concentrations were selected for each compound (non-toxic, non-toxic/slightly toxic and toxic). […] The expression changes of genes and proteins related to cholesterol metabolism were measured in both single and multiple exposure experiments.
(§2) All treatments were performed in triplicates and every experiment was performed three times. The cells were washed twice with ice cold phosphate-buffered saline (PBS), scrapped and stored at −80 °C until use. Total RNA from cells was isolated using TriReagent according to the manufacturer’s instructions (Biotech, Prague, Czech Republic). The purified RNA was dissolved in 40 µL of diethyl pyrocarbonate (DEPC)-treated water (0.01% DEPC in HPLC water, autoclaved) and stored at −80 °C. The measurement of absorbance at 260 and 280 nm using the NanoDrop ND-1000 UV–VIS Spectrophotometer (Thermo Fisher Scientific, Pardubice, Czech Republic) was used to determine RNA yields and purity. […] Fluorescence data were recorded at the end of each amplification step. Relative expression levels of the target genes were calculated as fold changes in triplicates for each group using the 2^−ΔΔCt method [28] by normalization to the geometric mean of the Ct values of Sdha and Ywhaz, which were used as reference genes.
Description for ALB mRNA: as §1, §2
Description for HMGCS mRNA: Three concentrations were selected for each compound (non-toxic, non-toxic/slightly toxic and toxic). The cholesterol level of the dHepaRG cells was measured after a multiple exposure of the highest non-toxic concentrations of tested compounds. […] The expression changes of genes and proteins related to cholesterol metabolism were measured in both single and multiple exposure experiments.
All treatments were performed in triplicates and every experiment was performed three times. The cells were washed twice with ice cold phosphate-buffered saline (PBS), scrapped and stored at −80 °C until use. Total RNA from cells was isolated using TriReagent according to the manufacturer’s instructions (Biotech, Prague, Czech Republic). The purified RNA was dissolved in 40 µL of diethyl pyrocarbonate (DEPC)-treated water (0.01% DEPC in HPLC water, autoclaved) and stored at −80 °C. The measurement of absorbance at 260 and 280 nm using the NanoDrop ND-1000 UV–VIS Spectrophotometer (Thermo Fisher Scientific, Pardubice, Czech Republic) was used to determine RNA yields and purity. Subsequently, the RNA (4 µg) was treated with 2 U of DNase I (New England Biolabs, Ipswich, MA, USA) in a final volume of 30 µL for 25 min at 37 °C, 1.5 µL of 0.1 M ethylenediaminetetraacetic acid was added and the DNAse was inactivated by heat (5 min at 75 °C). The solution was diluted to a concentration of 0.1 µg/µL. The DNAse treated RNA was stored at −80 °C until further analyses. The first strand cDNA was synthesized from 800 ng of total RNA and 1 µL of 50 µM random hexamers (Generi Biotech, Hradec Kralove, Czech Republic) using ProtoScript II reverse transcriptase (New England Biolabs, Ipswich, MA, USA). After the initial heat denaturation of total RNA (65 °C for 5 min), 4 µL of 5× ProtoScript II RT Reaction Buffer, 2 µL of 10× dithiothreitol (DTT), 2 µL of deoxynucleotide (dNTP) Mix 5 mM, 3.5 µL of H2O, and 0.5 µL of ProtoScript II 200 U/µL were added and mixed by pipetting. The reactions (20 µL) were incubated for 10 min at 25 °C, for 50 min at 42 °C, and for 5 min at 80 °C. The obtained cDNAs were diluted 1:6 by DEPC water. The qPCR analyses were carried out using QuantStudio 6 Flex (Applied Biosystems, Foster City, CA, USA) with SYBR green I (Xceed qPCR SG Mix, Institute of Applied Biotechnologies, Prague, Czech Republic) detection according to the manufacturer’s protocol. […] Fluorescence data were recorded at the end of each amplification step. Relative expression levels of the target genes were calculated as fold changes in triplicates for each group using the 2^−ΔΔCt method [28] by normalization to the geometric mean of the Ct values of Sdha and Ywhaz, which were used as reference genes.

For `C=C1C(=O)O[C@@H]2C[C@@]3(C)CCC[C@H](C)C3=C[C@H]12` [ATL, alantolactone], the “toxicity toward dHepaRG cells compared with cancer cells” value with dHepaRG cells is recorded as “significantly lesser toxicity”. The IC50 in the data set with dHepaRG cells (setting [1]) was 58.9 ± 3.5 µM; in the data set with dHepaRG cells (setting [2]), 57.2 ± 1 µM; with dHepaRG cells (setting [3]), roughly 60 µM. Besides, the highest non-toxic concentration in the data set on dHepaRG cells (dHepaRG cells) is 30 µM. Also, in the data set on dHepaRG cells (dHepaRG cells), the cell viability entry is “concentration-dependent decrease in the cell viability”. The “HMGCR mRNA level” value is “induction” in the data set on HMGCR mRNA (6-h exposure); “decreased level” in the data set on HMGCR mRNA (12- and 24-h exposure). The “HMGCS mRNA level” value is on record as “induced” in the data set on HMGCS mRNA (multiple exposure: four applications every 24 h, analyzed 12 h after the last, 30 μM ATL, 100 μM GER, 20 μM LOV); “induction” in the data set on HMGCS mRNA (single exposure, the highest concentration, 6-h exposure); “decreased level” in the data set on HMGCS mRNA (single exposure, the highest concentration, 12- and 24-h exposure).
On to `CC(C)=C1C/C=C(\C)CC/C=C(\C)CC1=O` [GER, germacrone], for which the “toxicity toward dHepaRG cells compared with cancer cells” value in the data set on dHepaRG cells was “similar”. For the same compound, the results for the IC50 in the data set on dHepaRG cells (setting [1]), with dHepaRG cells (setting [2]) and with dHepaRG cells (setting [3]) were 256 ± 5.7 µM, 242 ± 17.4 µM and roughly 250 µM, respectively. The compound further registered a highest non-toxic concentration with dHepaRG cells (dHepaRG cells) of 100 µM. In the data set on dHepaRG cells (dHepaRG cells), the cell viability entry was “concentration-dependent decrease in the cell viability”. Also, in the data set with A1AT mRNA, the “A1AT mRNA expression” value is on record as “inhibited”. Further, the “ALB mRNA expression” value with ALB mRNA is given as “induced”.
